Data as given in patent US11845927B2, “Bioremediation using co-metabolism substrates” (Oregon State University, priority 2018, dated 2023).
In brackets after ≈: the same amount, converted by molar mass. Read-outs that look alike come from different tables or passages of the source.

Experiments:
[1] = cited from earlier work
[2] = Growth substrates: final OD and % removal of cis-DCE and TCE (Table 1); assay type: cell-based; settings: culture grown on the listed substrate
[3] = cited from earlier work; for Henry's Constant, Hcc: dimensionless
[4] = test system: short chain alkane monoxygenase (SCAM); test: Activity-based labeling (ABL) of SCAM after growth on substrates; assay type: cell-based, Rhodococcus rhodochrous 21198; settings: 21198 grown on the substrate
From the text: ABL testing was used to identify alcohol growth substrates that induce SCAM expression and activity and result in co-metabolic transformation of contaminants, such as 1,4-D and CAHs.

[5] = test system: Rhodococcus rhodochrous 21198; test: Resting cell co-metabolic transformation tests with 21198; assay type: cell-based; settings: 21198 grown on isobutane, previous batch experiments
[6] = test system: Burkholderia vietnamiensis G4; test: Resting cell TCE transformation tests with G4; assay type: cell-based; settings: G4 grown on the substrate
From the text: This example concerns COC cometabolism by Burkholderia vietnamiensis G4 (G4).

[7] = Alcohol release from orthosilicates in poisoned control batch reactors; assay type: physicochemical
From the text: A slow but gradual rate of O2 consumption was observed, when headspace O2 concentrations are compared to the poisoned controls (FIG. 13). […] T2BOS is not rapidly utilized by 21198 like observed with sBA (FIG. 15), and 2-butanol is released by abiotic hydrolysis. The slow rate of hydrolysis is indicated by the measured 2-butanol concentrations in the poisoned reactor. Over the period of 60 to 125 days approximately 50 μmol of 2-butanol was formed.
Tetraisopropoxysilane (T2POS) is a 2-propanol releasing orthosilicate, similar to TBOS and T2BOS. […] The smaller 2-propanol therefore would be released from T2POS more rapidly than 2-butanol from T2BOS [6], but slower than TBOS. An identical test was performed to those presented for TBOS and T2BOS. The same growth indicators, CO2, O2, and 2-propanol, were tracked throughout the experiment (FIG. 18).

[8] = test system: Rhodococcus rhodochrous 21198; test: Growth cometabolism batch tests of 21198 on 2-butanol or orthosilicate SRCs; assay type: cell-based; settings: for first order rate of 1,4-D transformation / first-order rate of 1,1,1-TCA transformation: 21198 grown in the presence of the orthosilicate; for period over which cometabolic transformation of 1,1,1-TCA and 1,4-D was maintained: single addition of the SRC
Description: Growth on 2-butanol was tracked by the production of CO2, the increase in optical density and the consumption of 2-butanol (FIG. 11).
Three additions of 1,1,1-TCA and 1,4-D were made to the two biologically active reactors at 0, 21, and 60 days. […] A third addition of 1,1,1-TCA and 1,4-D was made to the active bottles around day 60.
The same growth cometabolism test performed with T2BOS as an SRC was performed for TBOS (FIGS. 16 and 17).
Tetraisopropoxysilane (T2POS) is a 2-propanol releasing orthosilicate, similar to TBOS and T2BOS. […] An identical test was performed to those presented for TBOS and T2BOS. The same growth indicators, CO2, O2, and 2-propanol, were tracked throughout the experiment (FIG. 18).

[9] = Abiotic hydrolysis of suspended and encapsulated TBOS and T2BOS; assay type: physicochemical; settings: for factor of decrease of hydrolysis rate in encapsulated beads compared to solution: similar masses present
Description: This example concerns abiotic hydrolysis experiments. Batch reactors similar to the CoC transformation reactors were used to determine the rate of hydrolysis of TBOS and T2BOS free suspended in solution and encapsulated at different mass loadings in both alginate and gellan gum. These batch kinetic tests were conducted at a constant 20° C. in 155 mL glass Wheaton bottles sealed with reusable screw on caps fitted with gray butyl rubber septa. Reactors were filled with 100 mL of pH-7 carbonate buffered MSM followed by an addition of free suspended or encapsulated SRCs. The total mass of SRC added to each reactor was dependent on various parameters but ranged from 1000-1500 mg/L. All hydrolysis rates observed here were abiotic hydrolysis rates, which was ensured by the addition of 0.2% (w/v) sodium azide as a microbial poison and typically measurements of respiration data (O2/CO2).
Reactors with TBOS and T2BOS in free suspension at concentrations that replicate encapsulated SRC reactors were created to determine the effect of encapsulation on SRC hydrolysis. Substrate production rates were used as a proxy for SRC hydrolysis, due to the simplicity of substrate analysis. Direct measurements of 1- and 2-butanol in solution were made in order to determine substrate production rates and measurements are presented on a total mass produced basis. Hydrolysis of orthosilicate compounds is acid and base catalyzed and therefore, observed hydrolysis rates are on the low end of what is possible, due to suspension in pH-7 media.
The concentrations of TBOS and T2BOS in solution effects the rate of hydrolysis, and therefore, concentrations of SRCs in abiotic reactors were created to mimic the concentration of SRCs in biotic co-encapsulated reactors, ˜1000-1500 mg/L. Biotic and abiotic reactors were created in unison and monitored alongside one another, though abiotic data have been separated and are presented below. To prevent contamination from occurring over the long duration of these experiments sodium azide, 0.2% (w/v), was added to all abiotic reactors.
Due to the ease of encapsulation of SRCs within alginate, initial abiotic hydrolysis work was conducted using alginate encapsulated TBOS. TBOS was encapsulated in abiotic alginate macro-beads at a mass loading of ˜5% and 30% (w/w). These beads were then added to triplicate reactors, such that the final TBOS concentration in pH-7 carbonate buffered media was kept constant at ˜1000 mg/L; i.e., 2 grams of 5% beads and ⅓ grams of 30% beads were added to 100 mL media solution. […] To illustrate the effect of encapsulation on the hydrolysis rate of TBOS, reactors containing similar concentrations of suspended TBOS were created and monitored alongside encapsulated TBOS reactors.
Total TBOS solution concentrations of ˜1000 mg/Land bead mass loading ˜5 and 30% (w/A). Datapoints are averages between duplicate (suspended) or triplicate (encapsulated) reactors in each treatment and errors bars are 95% confidence intervals. Suspended TBOS reactors were created after encapsulated reactors and therefore, have a shorter total duration of measurements.
The abiotic hydrolysis rate of both TBOS and T2BOS encapsulated in gellan gum was also investigated. Both SRCs were encapsulated in cylindrical gellan macro-beads at mass loadings of ˜8% (w/w). For this work ATCC 21198 was also co-encapsulated within the gellan gum matrix at initial concentrations of ˜0.5 mgTss/g, and an addition of 0.2% (w/v) sodium azide was added as a cellular poison to ensure cells were not alive within the matrix. Biomass was encapsulated because it had been determined that encapsulated SRCs may hydrolyze more quickly with cells present within the encapsulation matrix. Although, the increase in hydrolysis rate was not proven to be from biotic hydrolysis of SRCs and may have been due to the presence of biomass within the matrix allowing more diffusion of water into and butanol out of beads. […]

[10] = abiotic hydrolysis, aqueous alcohol
[11] = Table 15, summary of abiotic hydrolysis rates

For `CCC(C)OC(C)=O` (centres unmarked) [sec-butyl acetate], the estimated solubility [1] is listed as 3520 µg/mL.
For `CCCC(=O)O` [Butyrate], the “% REMOVAL TCE” value [2] was 9%.
With `CC=CCO` [2-buten-1-ol] the “% REMOVAL Cis-DCE” value [2] was 67%, the “% REMOVAL TCE” value [2] was 20% and the “FINAL OD(550)” value [2] was “.023”.
In the case of `C1COCCO1` [1,4-Dioxane], the “Henry's Constant, Hcc” value [3] is listed as 0.000198.
For `CC(C)C` [Isobutane], the “Solubility, Sw” value [3] is given as 48.9 mg/L (≈ 841 µM), the “Henry's Constant, Hcc” value [3] is given as 49.2 and the “SCAM activity / protein banding pattern” value [4] is given as “strongest banding pattern”. The VC transformation rate [5] was “about 14 μmol/mg TSS/day”.
With `CC(=O)OCc1ccccc1` [benzyl acetate] the “TCE transformation by resting cells” value [6] was “slower transformation rates”.
For 1-Propanol, the “SCAM activity / protein banding pattern” value [4] was “not induced”, the “% REMOVAL Cis-DCE” value [2] was 44% and the “FINAL OD(550)” value [2] was 0.24.
For `C=CCCO` [3-buten-1-ol], the “% REMOVAL Cis-DCE” value [2] was 89%, the “% REMOVAL TCE” value [2] was 21% and the “FINAL OD(550)” value [2] was “.022”.
In the case of `CCC(C)O[Si](OC(C)CC)(OC(C)CC)OC(C)CC` (centres unmarked) [T2BOS, tetra-sec-butyl orthosilicate], the “2-butanol production rate in poisoned control” value [7, 10] is reported as 0.76 µmol/day, the “2-butanol formed in poisoned reactor” value ([7]; over the period of 60 to 125 days, T2BOS 1500 mg/L) is reported as “approximately 50 μmol” and the “first order rate of 1,4-D transformation” value [8] is reported as 0.04 day⁻¹. The “first-order rate of 1,1,1-TCA transformation” value (shortened to “first-order rate”) [8] was 0.037 day⁻¹, the “period over which cometabolic transformation of 1,1,1-TCA and 1,4-D was maintained” value [8] was 125 days and the “Estimated Exhaustion of T2BOS” value ([9]; Table 13) was 12.9 years. For the same compound, the “Butanol Production Rate” value ([9]; Table 13, SRC ~1500 mg/L, pH-7) was 0.40 µmol/day, the “Estimated Exhaustion of TBOS” value ([9]; Table 14) was 12.9 years and the “Butanol Production Rate” value ([9]; Table 14, SRC 1500 mg/l) was 0.40 µmol/day. For the same compound, the “Estimated Exhaustion of SRS” value ([9]; Table 15) was 12.9 years, the “Butanol Production Rate” value [9, 11] was 0.40 µmol/day and the “factor of decrease of hydrolysis rate in encapsulated beads compared to solution” value [9] was 10. The estimated solubility [1] was 6.8 µg/mL and the estimated solubility ([1]; listed as tetra-sec-butyl orthosilicate) was 3.8 µg/mL.
In the case of `CC(C)O[Si](OC(C)C)(OC(C)C)OC(C)C` [T2POS, tetraisopropoxysilane], the “alcohol production rate in poisoned control” value [7, 10] is reported as 5.1 µmol/day, the “first order rate of 1,4-D transformation” value [8] is reported as 0.24 day⁻¹ and the “first-order rate” value [8] is reported as 0.14 day⁻¹.
For `C#C` [acetylene, reference compound], the “effect on transformation of 1,1,1-TCA and 1,4-D” value ([8]; acetylene present during growth of 21198 on 2-butanol) was “blocked”.
For `CC(=O)O` [Acetate], the “TCE transformation by resting cells” value [6] was “Slow rates”, the “% REMOVAL Cis-DCE” value [2] was 73% and the “FINAL OD(550)” value [2] was 0.33.
In the case of `CCCC(=O)OCc1ccccc1` [benzyl butyrate], the “TCE transformation by resting cells” value [6] is reported as “rapidly cometabolized”.
With `C=CC(C)O` (centres unmarked) [3-buten-2-ol] the “FINAL OD(550)” value [2] was 0.03.
In the case of 1-butanol, the “SCAM activity / protein banding pattern” value [4] is reported as “not induced”, the “% REMOVAL Cis-DCE” value [2] is reported as 98% and the “% REMOVAL TCE” value [2] is reported as 16%. For the same compound, the “FINAL OD(550)” value [2] was 0.24.
For `CC(Cl)(Cl)Cl` [1,1,1-Trichloroethane], the “Solubility, Sw” value [3] is listed as 1,290 mg/L and the “Henry's Constant, Hcc” value [3] is listed as 0.548.
For `O=C(O)c1ccccc1` [Benzoate], the “% REMOVAL Cis-DCE” value [2] was 84%, the “% REMOVAL TCE” value [2] was 6% and the “FINAL OD(550)” value [2] was 0.24.
In the case of `CCO` [Ethanol], the “SCAM activity / protein banding pattern” value [4] is reported as “not induced”.
In the case of 2-butanol, the “SCAM activity / protein banding pattern” value [4] is reported as “observed”.
In the case of `Oc1ccccc1` [Phenol], the “TCE transformation by resting cells” value [6] is reported as “slower transformation rates” and the “% REMOVAL TCE” value [2] is reported as 100%.
With `CC(C)O` [2-propanol] the “SCAM activity / protein banding pattern” value [4] was “faint banding pattern”.
With `OCc1ccccc1` [Benzyl alcohol] the “TCE transformation by resting cells” value [6] was “rapidly cometabolized” and the “% REMOVAL TCE” value [2] was 100%.
In the case of `CCCCO[Si](OCCCC)(OCCCC)OCCCC` [TBOS, tetrabutyl orthosilicate], the “alcohol production rate in poisoned control” value [7, 10] is reported as 11 µmol/day, the “first order rate of 1,4-D transformation” value [8] is reported as 0.76 day⁻¹ and the “first-order rate” value [8] is reported as 0.47 day⁻¹. The “period over which cometabolic transformation of 1,1,1-TCA and 1,4-D was maintained” value [8] was 45 days, the “Estimated Exhaustion of TBOS” value ([9]; Table 12) was 0.6 years and the “Butanol Production Rate” value ([9]; Table 12, 1-butanol, TBOS ~1000 mg/L, pH-7, 20° C.) was 5.9 µmol/day. For the same compound, the “Estimated Exhaustion of SRS” value ([9]; Table 15) was 0.58 years, the “Butanol Production Rate” value [9, 11] was 5.91 µmol/day and the “factor of decrease of hydrolysis rate in encapsulated beads compared to solution” value [9] was 10.
